# Data: patent US9297810B2, “CD40L-binding agent based platelet aggregation assays” (BIOGEN IDEC MA INC., priority 2005, dated 2016)
# Several values for one entry are separate records, joined by “and”; a condition that tells them apart may be missing. Equal values may be shown once. Entries after “also recorded” stand apart in the source; their conditions may differ.
# T1: CD40L on the platelet surface (Homo sapiens, UniProt P29965)
# T1 construct: Platelets were incubated with a biotin-conjugated anti-CD40L antibody to determine whether CD40L is present on the surface of platelets; endogenous in cells
# T1 sequence (P29965 1-261): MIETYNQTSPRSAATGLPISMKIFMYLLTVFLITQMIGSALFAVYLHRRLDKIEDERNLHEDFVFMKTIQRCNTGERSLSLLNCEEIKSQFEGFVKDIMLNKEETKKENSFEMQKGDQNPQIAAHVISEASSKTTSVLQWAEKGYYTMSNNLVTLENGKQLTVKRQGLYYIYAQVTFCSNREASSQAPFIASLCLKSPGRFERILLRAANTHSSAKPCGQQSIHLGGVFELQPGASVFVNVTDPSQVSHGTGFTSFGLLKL
# B1: sCD40L: recombinant soluble CD40 ligand prepared at Biogen, cross-linking agent (protein, UniProt P29965 47-261, looked up)
# extracellular domain: HRRLDKIEDERNLHEDFVFMKTIQRCNTGERSLSLLNCEEIKSQFEGFVKDIMLNKEETKKENSFEMQKGDQNPQIAAHVISEASSKTTSVLQWAEKGYYTMSNNLVTLENGKQLTVKRQGLYYIYAQVTFCSNREASSQAPFIASLCLKSPGRFERILLRAANTHSSAKPCGQQSIHLGGVFELQPGASVFVNVTDPSQVSHGTGFTSFGLLKL
# modifications: extracellular domain
# notes: recombinant soluble CD40 ligand prepared at Biogen, cross-linking agent
# What was measured:
# [1] = test system: ADP-Activated Platelets / resting platelets (platelet rich plasma); test: Platelet aggregation assay (PRP, Biodata PAP-4 aggregation profiler); type: cell-based, human; settings: for effect on aggregation of resting platelets: no ADP; for effect on the aggregation of ADP-activated platelets: wide range of ADP concentrations
# Procedure: All platelets used in the in vitro platelet aggregation experiments were isolated from healthy human volunteers who denied ingesting aspirin or aspirin containing compounds within 10 days. Aggregation assays were performed on PRP. Approximately 50 mL of whole blood was collected in aliquots in 4.5 mL vacutainer tubes containing 0.5 mL of 3.8% sodium citrate. PRP was prepared by centrifuging the anticoagulated blood at 200 g for 10 minutes and harvesting the supernatant.
# The Biodata 4-channel platelet aggregation profiler (PAP-4; Biodata Corp., Hatboro, Pa.) was blanked using a cuvette containing only platelet poor plasma (PPP). A 350 μL aliquot of PRP, containing approximately 2 to 5×10^8/mL platelets, was added to a cuvette containing a stir bar. Anti-CD40L antibody, human IgG, normal human serum, CD40-Fc, or anti-hFc were added in a total volume of 100 μL. The loaded cuvette was placed in the machine and the reaction components mixed prior to the addition of ADP.
# Aggregation was initiated with the addition of sub-optimal concentration of ADP in 50 μL (final concentration varies for each individual sample). The aggregation profiler has four ports, which can run simultaneously. An aggregation tracing was generated for each sample for four minutes following the addition of ADP. At the end of the tracing, the instrument calculates the percentage of aggregation by comparing the transmission of light through the sample to the transmission of light through the PPP blank. A titration was performed at the beginning of each experiment, and subsequent runs were performed at a suboptimal ADP concentration.
# [2] = target: T1, CD40L on the platelet surface; test: Binding of biotin-conjugated anti-CD40L antibody to platelets (western blotting with HRP-streptavidin); settings: data not shown
# [3] = result in words, listed as Anti-CD40L antibody
molecule,measurement,setting,value
BG9588: Research-grade anti-CD40L antibody prepared at Biogen; table column BG9588 corresponds to it,effect on aggregation of cross-linking of antibody bound to CD40L on activated platelets,"[1]; 2 μg/mL, cross-linked with anti-hFc (Table 5)",may enhance aggregation under limited conditions
same,effect on platelet aggregation of anti-CD40L antibody cross-linked by sCD40L,"[1]; FIG. 3, 233 μg/mL antibody and 30 μg/mL sCD40L, PRP of ten healthy donors, sub-optimal ADP","affected; also recorded: enhanced aggregation occurred with platelets isolated from some, but not all, healthy donors; also recorded: induced"
same,effect on platelet aggregation together with sCD40L,"[1]; FIG. 4, 200 μg/mL with sCD40L 30 μg/mL, 0.75 μM ADP, one donor",specifically enhanced
same,% of Aggregation,"[1]; Table 1, 5 μg/mL, ADP 0.00 μM (resting platelets)",11%
same,% of Aggregation,"[1]; Table 1, 5 μg/mL, ADP 0.37 μM",15%
same,% of Aggregation,"[1]; Table 1, 5 μg/mL, ADP 0.70 μM",24%
same,% of Aggregation,"[1]; Table 1, 5 μg/mL, ADP 2.00 μM",21%
same,% of Aggregation,"[1]; Table 1, 5 μg/mL, ADP 6.70 μM",71%
same,% of Aggregation,"[1]; Table 1, 5 μg/mL, ADP 20.00 μM, PRP, four-minute tracing",72%
same,% of Aggregation,"[1]; Table 2, 5 μg/mL, ADP 0.37 μM",10%
same,% of Aggregation,"[1]; Table 2, 5 μg/mL, ADP 0.70 μM",10%
same,% of Aggregation,"[1]; Table 2, 5 μg/mL, ADP 2.00 μM",12%
same,% of Aggregation,"[1]; Table 2, 5 μg/mL, ADP 6.70 μM",78%
same,% of Aggregation,"[1]; Table 2, 5 μg/mL, ADP 20.00 μM",80%
same,% of Aggregation,"[1]; Table 3, 5 μg/mL, ADP 0.00 μM (resting platelets)",3%
same,% of Aggregation,"[1]; Table 3, 5 μg/mL, ADP 0.30 μM",10%
same,% of Aggregation,"[1]; Table 3, 5 μg/mL, ADP 0.60 μM",10%
same,% of Aggregation,"[1]; Table 3, 5 μg/mL, ADP 1.25 μM",12%
same,% of Aggregation,"[1]; Table 3, 5 μg/mL, ADP 2.50 μM",62%
same,% of Aggregation,"[1]; Table 3, 5 μg/mL, ADP 5.00 μM",67%
same,% of Aggregation,"[1]; Table 3, 5 μg/mL, ADP 10.00 μM",69%
same,% of Aggregation,"[1]; Table 3, 5 μg/mL, ADP 20.00 μM",68%
same,% of Aggregation,"[1]; Table 4, 1.25 μg/mL, ADP 0.00 μM",3%
same,% of Aggregation,"[1]; Table 4, 2.50 μg/mL, ADP 0.00 μM",5%
same,% of Aggregation,"[1]; Table 4, 5.00 μg/mL, ADP 0.00 μM",3%
same,% of Aggregation,"[1]; Table 4, 10.00 μg/mL, ADP 0.00 μM",3%
same,% of Aggregation,"[1]; Table 4, 20.00 μg/mL, ADP 0.00 μM",3%
same,% of Aggregation,"[1]; Table 5, BG9588 2 μg/mL + anti-hFc 2.22 μg/mL, ADP 0.0 μM",3%
same,% of Aggregation,"[1]; Table 5, BG9588 2 μg/mL + anti-hFc 2.22 μg/mL, ADP 0.5 μM",8%
same,% of Aggregation,"[1]; Table 5, BG9588 2 μg/mL + anti-hFc 2.22 μg/mL, ADP 1.0 μM",76%
same,% of Aggregation,"[1]; Table 5, BG9588 2 μg/mL + anti-hFc 6.66 μg/mL, ADP 0.0 μM",3%
same,% of Aggregation,"[1]; Table 5, BG9588 2 μg/mL + anti-hFc 6.66 μg/mL, ADP 0.5 μM",8%
same,% of Aggregation,"[1]; Table 5, BG9588 2 μg/mL + anti-hFc 6.66 μg/mL, ADP 1.0 μM",84%
same,% of Aggregation,"[1]; Table 5, BG9588 2 μg/mL + anti-hFc 20.00 μg/mL, ADP 0.0 μM",3% and 4%
same,% of Aggregation,"[1]; Table 5, BG9588 2 μg/mL + anti-hFc 20.00 μg/mL, ADP 0.5 μM",8%
same,% of Aggregation,"[1]; Table 5, BG9588 2 μg/mL + anti-hFc 20.00 μg/mL, ADP 1.0 μM",83%
same,% of Aggregation,"[1]; Table 5, BG9588 2 μg/mL alone, ADP 0.0 μM",3%
same,% of Aggregation,"[1]; Table 6, resting platelets, BG9588 2 μg/mL + serum 0.00032x",6%
same,% of Aggregation,"[1]; Table 6, resting platelets, BG9588 2 μg/mL + serum 0.0016x",6%
same,% of Aggregation,"[1]; Table 6, resting platelets, BG9588 2 μg/mL + serum 0.008x",7%
same,% of Aggregation,"[1]; Table 6, resting platelets, BG9588 2 μg/mL + serum 0.04x",6%
same,% of Aggregation,"[1]; Table 6, resting platelets, BG9588 2 μg/mL + serum 0.2x",6%
same,% of Aggregation,"[1]; Table 6, resting platelets, BG9588 2 μg/mL + serum 1.0x",9%
same,effect on platelet aggregation of cross-linked anti-CD40L antibody,"[1]; cross-linked with 2.22 μg/mL anti-hFc, ADP 1.0 μM (Table 5 lines 109 and 110)",increased aggregation
same,effect on platelet aggregation of cross-linked anti-CD40L antibody,[1]; cross-linked with 20 μg/mL or 6.66 μg/mL anti-hFc,did not affect
same,enhancing effect on platelet aggregation of cross-linked anti-CD40L antibody,"[1]; cross-linked with anti-hFc, lower concentration of ADP",not observed
same,effect on aggregation of resting platelets,[1]; [3],do not induce
same,effect on aggregation of resting platelets,"[1]; result in words, listed as anti-CD40L antibody",not affected
same,effect on platelet aggregation,[1]; result in words,does not affect
same,effect on the aggregation of ADP-activated platelets,[1]; [3],do not induce the aggregation of resting platelets or affect; also recorded: do not affect
same,effect on the aggregation of ADP-activated platelets,"[1]; result in words, listed as Research-grade anti-CD40L antibody",did not affect
same,effect on platelets in the presence of normal human serum,[1]; with normal human serum (Table 6),not affected
B1,effect of preincubation on binding of biotin-conjugated anti-CD40L antibody to activated platelets,[2],inhibited binding
